Assays:
4T1 tumor = 4T1 tumor growth in mice; assay type: in vivo; conditions: for 4T1 tumor growth: echinomycin 0.15 mg/kg, vs vehicle
Method: (§1) FIGS. 3A-D show the therapeutic effects of echinomycin on tumor growth in immunodeficient and immunocompetent mice. FIG. 3A. Experimental design. Three murine tumor lines were tested: 4T1, E0771, or MC38. For each, immunodeficient and immunocompetent mice were inoculated (day 0), and treatment was initiated with control liposomes (vehicle) or echinomycin liposomes (LEM) on day 6, indicated by arrows in FIGS. 3B-3D. The kinetics of tumor growth were compared to deduce the role of adaptive immunity in the therapeutic effects of echinomycin. FIG. 3B. 4T1 cells (1×10^6) were transplanted into mammary fat pad of NSG and BALB/c mice, which received vehicle or echinomycin (0.15 mg/kg) (arrows). Mean tumor volumes±SEM are shown for one of two independent experiments (n=10/group). FIG. 3C. Kinetics of E0771 tumor growth. E0771 cells (0.7×10^6) were transplanted into mammary fat pad of NSG and C57BL/6 mice, which received vehicle or echinomycin (0.25 mg/kg) (arrows). Mean tumor volumes±SEM are shown for one of two independent experiments (n=5/group). FIG. 3D. Kinetics of MC38 tumor growth. MC38 cells (1×10^6) were transplanted subcutaneously into NSG and C57BL/6 mice, which received vehicle or echinomycin (0.15 mg/kg) (blue arrows). Mean tumor volumes±SEM are shown for one of two independent experiments (n=5/group).
FIGS. 5A-D show at echinomycin potentiates the therapeutic effect of anti-CTLA-4 antibody. FIG. 5A. Experimental design. In 4T1, E0771, or MC38 syngeneic tumor models, the effects of echinomycin on tumor growth were tested in combination with anti-CTLA-4 therapy (9D9). Tumor growth kinetics in mice receiving vehicle, echinomycin, and anti-CTLA-4 (9D9) monotherapies, or anti-CTLA-4+anti-PD-1 (9D9+RMP1-14) are shown. Starting on day 6 after tumor cell inoculation, mice received vehicle or echinomycin and/or various mAbs. The mean tumor volumes±SEM are shown for each group. […]
(§2) Tumor Models The details of each experiment are specified in the figure legends. […] Tumor volumes were calculated and reported based on the formula […], where a is the longer diameter, and b is the shorter diameter. […]

MC38 tumor = MC38 tumor growth in mice; assay type: in vivo; conditions: echinomycin 0.15 mg/kg
Method: as §1, with “MC38 cells (1×10^6) were transplanted subcutaneously into NSG and C57BL/6 mice, which received vehicle or echinomycin (0.15 mg/kg) (blue arrows). Mean tumor volumes±SEM are shown for one of two independent experiments (n=5/group).” left out
as §2

intestinal tissues = experiment: Ipilimumab-induced GI-irAE in human CTLA4 knockin mice (FITC-dextran, histology, PD-L1)
Method: Experimental design for GI-irAE induction by Ipilimumab, with or without additional therapies. 10-day old CTLA4h/h mice received 0.1 mg of Ipilimumab on days 10, 13, 16, and 19 after birth to induce the GI-irAE phenotype, measured by FITC-dextran assay on day 32. On day 33, the mice were sacrificed for histological and immunofluorescent analysis of intestinal tissues, and flow cytometry, etc. […] Aggregate data from 4 experiments are presented. […] Starting on day 10 after birth, the mice began receiving treatment with vehicle (n=33), echinomycin (n=27), Ipilimumab (n=33), Ipilimumab+echinomycin (n=26), Ipilimumab+RMP1-14 (n=27), Ipilimumab+echinomycin+RMP1-14 (n=28), or Ipilimumab+echinomycin+XMG1.2 (n=15). Echinomycin (10 μg/kg), Ipilimumab (0.1 mg/mouse/injection), RMP1-14 (0.2 mg/mouse/injection), and XMG1.2 (0.2 mg/mouse/injection). Vehicle or echinomycin (10 μg/kg) were given once every three days for 8 doses, and mAbs (0.1 mg/mo. for Ipilimumab; 0.2 mg/mo. for RMP1-14 and XMG1.2) once every three days for 4 doses. Data collection was performed as described in (FIG. 8A). […] Serum FITC-dextran intensity shown as mean±SEM for individual mice pooled from 3 independent experiments. […] Statistics were determined by unpaired t tests (two-tailed) for group means. […] Representative H&E images from intestines of Ipilimumab-treated mice additionally treated with echinomycin (panel i), RMP1-14 (panels ii-iv), echinomycin+RMP1-14 (panels v-vi), or echinomycin+XMG1.2 (panels vii-viii). […] Representative immunofluorescence images showing relative expression of PD-L1 in jejunum of mice from different treatment groups.
Therefore, we used intestinal permeability to orally administrated FITC-dextran and histology as the readout for irAE (FIG. 8A).

CSC1SC[C@H]2C(=O)N(C)[C@@H](C(C)C)C(=O)OC[C@@H](NC(=O)c3cnc4ccccc4n3)C(=O)N[C@@H](C)C(=O)N(C)[C@@H]1C(=O)N(C)[C@@H](C(C)C)C(=O)OC[C@@H](NC(=O)c1cnc3ccccc3n1)C(=O)N[C@@H](C)C(=O)N2C (stereo in doubt) [echinomycin, N,N′-(2,4,12,15,17,25-hexamethyl-11,24-bis(1-methylethyl)-27-(methylthio)-3,6,10,13,16,19,23,26-octaoxo-9,22-dioxa-28-thia-2,5,12,15,18,25-hexaazabicyclo(12.12.3)nonacosane-7,20-diyl)bis(2-quinoxalinecarboxamide)]
4T1 growth inhibition, immunocompetent vs immunodeficient mice (4T1 tumor; BALB/c vs NSG): more significantly inhibited in immunocompetent mice than in immunodeficient mice | 4T1 tumor growth (4T1 tumor; immunocompetent BALB/c): significantly inhibited 4T1 tumor growth | 4T1 tumor growth (4T1 tumor; immunodeficient NSG): significantly inhibited 4T1 tumor growth | MC38 tumor growth, combination study (MC38 tumor; C57BL/6, mAbs 0.2 mg/mouse/injection, vs vehicle): significant inhibition of tumor growth | MC38 tumor growth (MC38 tumor; C57BL/6 vs NSG): all therapeutic effects required immune competence | PD-L1 expression in the intestines (intestinal tissues; Ipilimumab 0.1 mg/mouse/injection, echinomycin 10 μg/kg added to Ipilimumab): enhanced PD-L1 expression | Ipilimumab-induced intestinal leakage (FITC-dextran) (intestinal tissues; agent added to Ipilimumab (anti-PD-1 added to Ipilimumab+echinomycin)): protected against Ipilimumab-induced intestinal leakage | H&E findings in intestines of Ipilimumab-treated mice additionally treated with the agent (intestinal tissues; representative images, FIG. 8F panels): normal pathology
